{"source": "patent US9040542B2", "about": "“Solid forms of gyrase inhibitor (R)-1-ethyl-3-[6-fluoro-5-[2-(1-hydroxy-1-methyl-ethyl)pryimidin-5-yl]-7-(tetrahydrofuran-2-yl)-1H-benzimidazol-2-yl]urea” (priority 2011, dated 2015)", "format_in_all_cases": "cell-based", "key": {"M. abscessus MC 5922": {"tested_on": "M. abscessus MC 5922", "test": "MIC, Protocol #4 Mycobacterium species"}, "M. abscessus BB3": {"tested_on": "M. abscessus BB3", "test": "MIC, Protocol #4 Mycobacterium species"}, "M. abscessus BB8": {"tested_on": "M. abscessus BB8", "test": "MIC, Protocol #4 Mycobacterium species"}, "Bacteroides fragilis": {"tested_on": "Bacteroides fragilis", "test": "MIC90 panel, Protocol #3 agar dilution", "settings": "25 isolates"}, "[1]": {"tested_on": "Staphylococcus aureus ATCC 29213 GyrB T173I", "test": "MIC, Protocol #1 microdilution broth"}, "M. abscessus MC 6142": {"tested_on": "M. abscessus MC 6142", "test": "MIC, Protocol #4 Mycobacterium species"}, "M. kansasii 379": {"tested_on": "M. kansasii 379", "test": "MIC, Protocol #4 Mycobacterium species"}, "[2]": {"tested_on": "Clostridium difficile ATCC BAA-1382", "test": "MIC, Protocol #3 agar dilution"}, "M. abscessus BB6": {"tested_on": "M. abscessus BB6", "test": "MIC, Protocol #4 Mycobacterium species"}, "M. abscessus MC 5931": {"tested_on": "M. abscessus MC 5931", "test": "MIC, Protocol #4 Mycobacterium species"}, "Prevotella spp.": {"tested_on": "Prevotella spp.", "test": "MIC90 panel, Protocol #3 agar dilution", "settings": "13 isolates"}, "M. abscessus MC 6025": {"tested_on": "M. abscessus MC 6025", "test": "MIC, Protocol #4 Mycobacterium species"}, "[3]": {"tested_on": "Enterococcus faecalis ATCC 29212", "test": "MIC, Protocol #1 microdilution broth", "settings": "Enterococcus faecalis ATCC 29212, with Laked Horse Blood"}, "[4]": {"tested_on": "Bacillus cereus ATCC 10987", "test": "MIC, Protocol #1 microdilution broth"}, "Fusobacterium spp.": {"tested_on": "Fusobacterium spp.", "test": "MIC90 panel, Protocol #3 agar dilution", "settings": "16 isolates"}, "[5]": {"tested_on": "Bacillus subtilis (168) ATCC 6051", "test": "MIC, Protocol #1 microdilution broth"}, "M. abscessus MC 6153": {"tested_on": "M. abscessus MC 6153", "test": "MIC, Protocol #4 Mycobacterium species"}, "M. abscessus BB2": {"tested_on": "M. abscessus BB2", "test": "MIC, Protocol #4 Mycobacterium species"}, "M. avium 3404.4": {"tested_on": "M. avium 3404.4", "test": "MIC, Protocol #4 Mycobacterium species"}, "M. kansasii 303": {"tested_on": "M. kansasii 303", "test": "MIC, Protocol #4 Mycobacterium species"}, "M. abscessus MC 6111": {"tested_on": "M. abscessus MC 6111", "test": "MIC, Protocol #4 Mycobacterium species"}, "M. abscessus BB1": {"tested_on": "M. abscessus BB1", "test": "MIC, Protocol #4 Mycobacterium species"}, "[6]": {"tested_on": "M. tuberculosis Erdman ATCC 35801", "test": "MIC, Protocol #4 Mycobacterium species"}, "Enterococcus faecium": {"tested_on": "Enterococcus faecium", "test": "MIC90 panel, Protocol #1 microdilution broth", "settings": "33 isolates"}, "M. abscessus MC 5605": {"tested_on": "M. abscessus MC 5605", "test": "MIC, Protocol #4 Mycobacterium species"}, "Neisseria gonorrhoeae": {"tested_on": "Neisseria gonorrhoeae", "test": "MIC90 panel, Protocol #3 agar dilution", "settings": "13 isolates"}, "Clostridium perfringens": {"tested_on": "Clostridium perfringens", "test": "microbe, parasite or virus in culture"}, "[7]": {"tested_on": "Bacteroides and Parabacter spp.", "test": "MIC90 panel, Protocol #3 agar dilution", "settings": "26 isolates"}, "M. abscessus BB4": {"tested_on": "M. abscessus BB4", "test": "MIC, Protocol #4 Mycobacterium species"}, "Pseudomonas aeruginosa": {"tested_on": "Pseudomonas aeruginosa", "test": "MIC90 panel, Protocol 2 microdilution broth", "settings": "12 isolates", "text": "(§1) The specific protocols used were as follows:\n(§2) Drug dilutions, inoculation, MIC determination: • 1."}, "Enterobacter cloacae": {"tested_on": "Enterobacter cloacae", "test": "MIC90 panel, Protocol 2 microdilution broth", "settings": "12 isolates", "text": "as §1, §2"}, "Proteus mirabilis": {"tested_on": "Proteus mirabilis", "test": "MIC90 panel, Protocol 2 microdilution broth", "settings": "12 isolates", "text": "as §1, §2"}, "Escherichia coli": {"tested_on": "Escherichia coli", "test": "MIC90 panel, Protocol 2 microdilution broth", "settings": "12 isolates", "text": "as §1, §2"}, "Acinetobacter baumannii": {"tested_on": "Acinetobacter baumannii", "test": "MIC90 panel, Protocol 2 microdilution broth", "settings": "12 isolates", "text": "as §1, §2"}, "Klebsiella pneumoniae": {"tested_on": "Klebsiella pneumoniae", "test": "MIC90 panel, Protocol 2 microdilution broth", "settings": "12 isolates", "text": "as §1, §2"}, "Moraxella catarrhalis": {"tested_on": "Moraxella catarrhalis", "test": "MIC90 panel, Protocol 2 microdilution broth", "settings": "26 isolates", "text": "as §1, §2"}, "Haemophilus influenzae": {"tested_on": "Haemophilus influenzae", "test": "MIC90 panel, Protocol 2 microdilution broth", "settings": "55 isolates", "text": "as §1, §2"}, "Clostridium difficile": {"tested_on": "Clostridium difficile", "test": "MIC90 panel, Protocol #3 agar dilution", "settings": "16 isolates"}, "N. asteroids 2039": {"tested_on": "N. asteroids 2039", "test": "MIC, Protocol #4 Mycobacterium species"}, "M. abscessus LT 949": {"tested_on": "M. abscessus LT 949", "test": "MIC, Protocol #4 Mycobacterium species"}, "M. abscessus BB10": {"tested_on": "M. abscessus BB10", "test": "MIC, Protocol #4 Mycobacterium species"}}, "data": [{"smiles": "CCNC(=O)Nc1nc2cc(-c3cnc(C(C)(C)O)nc3)c(F)c([C@H]3CCCO3)c2[nH]1", "note": "[Compound 24, 1-ethyl-3-[6-fluoro-5-[2-(1-hydroxy-1-methyl-ethyl)pyrimidin-5-yl]-7-[(2R)-tetrahydrofuran-2-yl]-1H-benzimidazol-2-yl]urea]", "values": [{"measurement": "MIC", "setting": "M. abscessus MC 5922", "result": 0.25, "unit": "µg/mL"}, {"measurement": "MIC", "setting": "M. abscessus BB3", "result": 0.5, "unit": "µg/mL"}, {"measurement": "MIC", "setting": "M. abscessus BB8", "result": 0.5, "unit": "µg/mL"}, {"measurement": "MIC90", "setting": "Bacteroides fragilis", "result": 16, "unit": "µg/mL"}, {"measurement": "MIC Range", "setting": "Bacteroides fragilis", "result": "1 to 16", "unit": "µg/mL"}, {"measurement": "MIC", "setting": "[1]", "result": 0.3, "unit": "µg/mL"}, {"measurement": "MIC", "setting": "M. abscessus MC 6142", "result": 0.5, "unit": "µg/mL"}, {"measurement": "MIC", "setting": "M. kansasii 379", "result": "< 0.015", "unit": "µg/mL"}, {"measurement": "MIC", "setting": "[2]", "result": 0.38, "unit": "µg/mL"}, {"measurement": "MIC", "setting": "M. abscessus BB6", "result": 0.5, "unit": "µg/mL"}, {"measurement": "MIC", "setting": "M. abscessus MC 5931", "result": 0.5, "unit": "µg/mL"}, {"measurement": "MIC90", "setting": "Prevotella spp.", "result": 16, "unit": "µg/mL"}, {"measurement": "MIC Range", "setting": "Prevotella spp.", "result": "0.06 to 16", "unit": "µg/mL"}, {"measurement": "MIC", "setting": "M. abscessus MC 6025", "result": 0.75, "unit": "µg/mL"}, {"measurement": "MIC", "setting": "[3]", "result": 0.028, "unit": "µg/mL"}, {"measurement": "MIC", "setting": "[4]", "result": 0.031, "unit": "µg/mL"}, {"measurement": "MIC90", "setting": "Fusobacterium spp.", "result": "> 16", "unit": "µg/mL"}, {"measurement": "MIC", "setting": "[5]", "result": 4, "unit": "µg/mL"}, {"measurement": "MIC", "setting": "M. abscessus MC 6153", "result": 1, "unit": "µg/mL"}, {"measurement": "MIC", "setting": "M. abscessus BB2", "result": 1, "unit": "µg/mL"}, {"measurement": "MIC", "setting": "M. avium 3404.4", "result": 0.23, "unit": "µg/mL"}, {"measurement": "MIC", "setting": "M. kansasii 303", "result": 0.03, "unit": "µg/mL"}, {"measurement": "MIC", "setting": "M. abscessus MC 6111", "result": 0.5, "unit": "µg/mL"}, {"measurement": "MIC", "setting": "M. abscessus BB1", "result": 2, "unit": "µg/mL"}, {"measurement": "MIC", "setting": "[6]", "result": 0.06, "unit": "µg/mL"}, {"measurement": "MIC90", "setting": "Enterococcus faecium", "result": 0.12, "unit": "µg/mL"}, {"measurement": "MIC Range", "setting": "Enterococcus faecium", "result": "0.003 to 0.25", "unit": "µg/mL"}, {"measurement": "MIC", "setting": "M. abscessus MC 5605", "result": 1.5, "unit": "µg/mL"}, {"measurement": "MIC90", "setting": "Neisseria gonorrhoeae", "result": 0.25, "unit": "µg/mL"}, {"measurement": "MIC Range", "setting": "Neisseria gonorrhoeae", "result": "0.12 to 0.25", "unit": "µg/mL"}, {"measurement": "MIC90", "setting": "Clostridium perfringens", "result": 0.5, "unit": "µg/mL"}, {"measurement": "MIC Range", "setting": "Clostridium perfringens; 12 isolates, Protocol 3", "result": "0.12 to 0.5", "unit": "µg/mL"}, {"measurement": "MIC90", "setting": "[7]", "result": 16, "unit": "µg/mL"}, {"measurement": "MIC Range", "setting": "[7]", "result": "0.12 to 16", "unit": "µg/mL"}, {"measurement": "MIC", "setting": "M. abscessus BB4", "result": 2, "unit": "µg/mL"}, {"measurement": "MIC90", "setting": "Pseudomonas aeruginosa", "result": "> 8", "unit": "µg/mL"}, {"measurement": "MIC90", "setting": "Enterobacter cloacae", "result": "> 8", "unit": "µg/mL"}, {"measurement": "MIC90", "setting": "Proteus mirabilis", "result": "> 8", "unit": "µg/mL"}, {"measurement": "MIC90", "setting": "Escherichia coli", "result": "> 8", "unit": "µg/mL"}, {"measurement": "MIC90", "setting": "Acinetobacter baumannii", "result": "> 8", "unit": "µg/mL"}, {"measurement": "MIC90", "setting": "Klebsiella pneumoniae", "result": "> 8", "unit": "µg/mL"}, {"measurement": "MIC90", "setting": "Moraxella catarrhalis", "result": 0.03, "unit": "µg/mL"}, {"measurement": "MIC Range", "setting": "Moraxella catarrhalis", "result": "≦0.004-0.03 μg/ml"}, {"measurement": "MIC90", "setting": "Haemophilus influenzae", "result": 1, "unit": "µg/mL"}, {"measurement": "MIC Range", "setting": "Haemophilus influenzae", "result": "0.06 to 2", "unit": "µg/mL"}, {"measurement": "MIC Range", "setting": "Clostridium difficile", "result": "0.06 to 4", "unit": "µg/mL"}, {"measurement": "MIC90", "setting": "Clostridium difficile; Clostridioides difficile", "result": 0.25, "unit": "µg/mL"}, {"measurement": "MIC", "setting": "N. asteroids 2039", "result": 1, "unit": "µg/mL"}, {"measurement": "MIC", "setting": "M. abscessus LT 949", "result": 1, "unit": "µg/mL"}, {"measurement": "MIC", "setting": "M. abscessus BB10", "result": 0.015, "unit": "µg/mL"}]}]}
